A short description of this data set: Parallel Artificial Membrane Permeability Assay (PAMPA). The conditions noted are these: for Papp at 4 hr, 200 uM: PAMPA, read-out: PAMPA: P_app; for PAMPA: P_app: 200 uM test compound, 4 hr. In kind it is in vitro ADME. As for the experimental part:
5 uL of 1% lecithin (VWR 0579) dissolved in n-dodecane (Sigma Aldrich D221104) was applied to each well of a MultiScreen IP PAMPA filter plate (Millipore MAIPSWU10) and allowed to equilibrate for 5 minutes. 300 uL of PBS was added to the acceptor plate and 150 uL of 200 uM test compound dissolved in PBS and 30% ethanol was added to the donor wells before incubating the donor plate in the acceptor plate for 4 hr at 500 rpm. 100 uL was sampled from the donor and acceptor wells and the concentrations were measured by liquid chromatography-mass spectrometry (SCIEX 4500) or UV-VIS plate reader (BMG).

Like-named read-outs stand apart in the source and are kept apart here.

Regarding `CNC(=O)c1cc2c(NC(=O)C3CC3)nn(-c3ccccc3)c2s1` [Compound 3, 3-(cyclopropanecarboxamido)-N-methyl-1-phenyl-1H-thieno[2,3-c]pyrazole-5-carboxamide], the Papp at 4 hr, 200 uM (pH 5.0, 200 uM test compound) was over 50 ×10⁻⁶ cm/s. Further, the “PAMPA: P_app” value (pH 7.4) is reported as over 50.0 ×10e−6 cm/sec.

For the compound `CNC(=O)c1cc2c(-c3ccccc3)nn(-c3ccccc3)c2o1` [Compound 38, N-methyl-1,3-diphenyl-1H-furo[2,3-c]pyrazole-5-carboxamide], the Papp at 4 hr, 200 uM (pH 5.0, 200 uM test compound) was found to be 46.1 ×10⁻⁶ cm/s and the Papp at 4 hr, 200 uM (pH 7.4, 200 uM test compound) is over 50 ×10⁻⁶ cm/s.

As to `CC(=O)Nc1ncc2c(-c3ccccc3)nn(-c3ccccc3)c2n1` [Compound 272, N-(1,3-diphenyl-1H-pyrazolo[3,4-d]pyrimidin-6-yl)acetamide], the Papp at 4 hr, 200 uM (pH 5.0, 200 uM test compound) was determined as 8.8 ×10⁻⁶ cm/s and the Papp at 4 hr, 200 uM (pH 7.4, 200 uM test compound) turned out to be 8.9 ×10⁻⁶ cm/s.

Regarding `CNC(=O)c1cc2c(-c3ccccc3)nn(-c3ccc(F)cc3)c2o1` [Compound 292], the “PAMPA: P_app” value stood at 7.9 ×10e−6 cm/sec (pH 5.0) and 13.5 ×10e−6 cm/sec (pH 7.4).

On to `CNc1nc(=O)n(-c2nc(-c3cccc(C)c3)oc2-c2ccc(Cl)c(F)c2)cc1F` [Compound 83, 1-(5-(4-chloro-3-fluorophenyl)-2-(m-tolyl)oxazol-4-yl)-5-fluoro-4-(methylamino)pyrimidin-2(1H)-one], for which the Papp at 4 hr, 200 uM by setting is: (pH 5.0, 200 uM test compound) 40.3 ×10⁻⁶ cm/s; (pH 7.4, 200 uM test compound) over 50 ×10⁻⁶ cm/s.

Take `COc1nccc2cc(-c3nc(-n4ccc5cccnc5c4=O)c(-c4ccc(C(F)(F)F)cc4)o3)ccc12` [Compound 124, 7-(2-(1-methoxyisoquinolin-6-yl)-5-(4-(trifluoromethyl)phenyl)oxazol-4-yl)-1,7-naphthyridin-8(7H)-one]: the Papp at 4 hr, 200 uM (pH 7.4, 200 uM test compound) is 5.82 ×10⁻⁶ cm/s.

For the compound `O=c1nc2c(ccn2C2CC2)cn1-c1nc(-c2cnc(C3CC3)nc2)oc1-c1ccc(Cl)c(F)c1` [Compound 186, 3-[5-(4-chloro-3-fluorophenyl)-2-(2-cyclopropylpyrimidin-5-yl)-1,3-oxazol-4-yl]-7-cyclopropyl-2H,3H,7H-pyrrolo[2,3-d]pyrimidin-2-one], where the note is “pH 7.4, 200 uM test compound”, the Papp at 4 hr, 200 uM came to 6.27 ×10⁻⁶ cm/s.

`O=c1nc2c(ccn2C(F)(F)F)cn1-c1nc(N2CC(F)C2)oc1-c1ccc(F)cc1` [Compound 239]: the “PAMPA: P_app” value (pH 7.4) is listed as 0.664 ×10e−6 cm/sec.

For the compound `CCC(=O)Nc1ncc2c(-c3ccccc3)nn(-c3ccccc3)c2n1` [Compound 273], the “PAMPA: P_app” value (pH 5.0) came out at 2.8 ×10e−6 cm/sec and the “PAMPA: P_app” value (pH 7.4) is reported as 3.6 ×10e−6 cm/sec.

Turning to `CC(=O)Nc1ncc2c(-c3ccccc3)nn(Cc3ccccn3)c2n1` [Compound 278], the “PAMPA: P_app” value runs as follows: (pH 5.0) over 50 ×10e−6 cm/sec; (pH 7.4) over 50 ×10e−6 cm/sec.

`CNC(=O)c1ncc2c(-c3ccnc(C(C)(F)F)n3)nn(-c3ccc(Cl)cc3)c2n1` [Compound 22, 1-(4-chlorophenyl)-3-(2-(1,1-difluoroethyl)pyrimidin-4-yl)-N-methyl-1H-pyrazolo[3,4-d]pyrimidine-6-carboxamide]: the Papp at 4 hr, 200 uM (pH 5.0, 200 uM test compound) was over 50 ×10⁻⁶ cm/s. For the same compound, the “PAMPA: P_app” value (pH 7.4) is recorded as over 50.0 ×10e−6 cm/sec.

Consider `CNC(=O)c1cnc2c(-c3cc(F)cc(F)c3)nn(Cc3ccccc3)c2n1` [Compound 262, 1-benzyl-3-(3,5-difluorophenyl)-N-methyl-1H-pyrazolo[3,4-b]pyrazine-6-carboxamide], for which the Papp at 4 hr, 200 uM (pH 5.0, 200 uM test compound) stood at 1.2 ×10⁻⁶ cm/s and the Papp at 4 hr, 200 uM (pH 7.4, 200 uM test compound) came out at 2 ×10⁻⁶ cm/s.

As for `CNC(=O)c1cc2c(C3=CCCC3)nn(-c3ccccc3)c2s1` [Compound 31, 3-(cyclopent-1-en-1-yl)-N-methyl-1-phenyl-1H-thieno[2,3-c]pyrazole-5-carboxamide], the Papp at 4 hr, 200 uM (pH 5.0, 200 uM test compound) amounted to 14.9 ×10⁻⁶ cm/s and the Papp at 4 hr, 200 uM (pH 7.4, 200 uM test compound) worked out at 16.7 ×10⁻⁶ cm/s.

On to `O=c1nc2c(ccn2C(F)(F)F)cn1-c1nc(N2CCCC2)oc1-c1ccc(F)cc1` [Compound 238, 3-[5-(4-fluorophenyl)-2-(pyrrolidin-1-yl)-1,3-oxazol-4-yl]-7-(trifluoromethyl)-2H,3H,7H-pyrrolo[2,3-d]pyrimidin-2-one], for which, for the setting “pH 7.4, 200 uM test compound”, the Papp at 4 hr, 200 uM is 2.28 ×10⁻⁶ cm/s.

For the compound `CC(=O)Nc1ncc2c(-c3ccccc3)nn(-c3cccnc3)c2n1` [Compound 276, N-(3-phenyl-1-(pyridin-3-yl)-1H-pyrazolo[3,4-d]pyrimidin-6-yl)acetamide], the Papp at 4 hr, 200 uM (pH 5.0, 200 uM test compound) was over 50 ×10⁻⁶ cm/s. In addition, the “PAMPA: P_app” value (pH 7.4) is over 50 ×10e−6 cm/sec.

Take `CNC(=O)c1ncc2c(-c3ccccc3)nn(Cc3cccc(F)c3)c2n1` [Compound 249]: the “PAMPA: P_app” value (pH 5.0) was determined as 47.1 ×10e−6 cm/sec and the “PAMPA: P_app” value (pH 7.4) was over 50 ×10e−6 cm/sec.

Turning to `O=C(Nc1ncc2c(-c3ccccc3)nn(-c3ccccc3)c2n1)C1CC1` [Compound 275], the “PAMPA: P_app” value is recorded as 0.8 ×10e−6 cm/sec (pH 5.0) and 1.3 ×10e−6 cm/sec (pH 7.4).

As for `CCn1nc(-c2ccccc2)c2cnc(NC(C)=O)nc21` [Compound 277], the “PAMPA: P_app” value is given as over 50 ×10e−6 cm/sec (pH 5.0) and over 50 ×10e−6 cm/sec (pH 7.4).

For `CNC(=O)c1ncc2c(-c3ccnc(C(F)(F)F)n3)nn(-c3ccc(Cl)cc3)c2n1` [Compound 37, 1-(4-chlorophenyl)-N-methyl-3-(2-(trifluoromethyl)pyrimidin-4-yl)-1H-pyrazolo[3,4-d]pyrimidine-6-carboxamide], under “pH 5.0, 200 uM test compound”, the Papp at 4 hr, 200 uM was over 50 ×10⁻⁶ cm/s. Also, the “PAMPA: P_app” value (pH 7.4) is over 50.0 ×10e−6 cm/sec.

Regarding `COC(=O)c1cc2c(-c3ccccc3)nn(-c3ccccc3)c2[nH]1` [Compound 34, methyl 1,3-diphenyl-1,6-dihydropyrrolo[2,3-c]pyrazole-5-carboxylate], the Papp at 4 hr, 200 uM reads like this: (pH 5.0, 200 uM test compound) 24.4 ×10⁻⁶ cm/s; (pH 7.4, 200 uM test compound) 14.3 ×10⁻⁶ cm/s.

For the compound `O=c1nc2c(ccn2C2CC2)cn1-c1nc(-c2ccnc(C3CC3)n2)oc1-c1ccc(F)cc1` [Compound 216, 7-cyclopropyl-3-[2-(2-cyclopropylpyrimidin-4-yl)-5-(4-fluorophenyl)-1,3-oxazol-4-yl]-2H,3H,7H-pyrrolo[2,3-d]pyrimidin-2-one], the Papp at 4 hr, 200 uM (pH 7.4, 200 uM test compound) is 1.63 ×10⁻⁶ cm/s.

For the compound `CC(=O)Nc1ncc2c(-c3ccc(F)cc3)nn(Cc3ccccc3)c2n1` [Compound 263, N-(1-benzyl-3-(4-fluorophenyl)-1H-pyrazolo[3,4-d]pyrimidin-6-yl)acetamide], the Papp at 4 hr, 200 uM runs as follows: (pH 5.0, 200 uM test compound) 17.9 ×10⁻⁶ cm/s; (pH 7.4, 200 uM test compound) 20.7 ×10⁻⁶ cm/s.

In the case of `CNC(=O)c1ncc2c(-c3ccc(F)cc3)nn(Cc3ccccc3)c2n1` [Compound 250], the “PAMPA: P_app” value by setting is: (pH 5.0) over 50 ×10e−6 cm/sec; (pH 7.4) over 50 ×10e−6 cm/sec.

In the case of `CNc1nc(=O)n(-c2nc(-c3cccc(Cl)c3)oc2-c2ccc(Cl)c(F)c2)cc1F` [Compound 1], the “PAMPA: P_app” value is on record as over 50.0 ×10e−6 cm/sec (pH 5.0) and over 50.0 ×10e−6 cm/sec (pH 7.4).

Turning to `CC(=O)Nc1ncc2c(-c3ccccc3)nn(Cc3ccccc3)c2n1` [Compound 264], the “PAMPA: P_app” value (pH 5.0) amounted to 27.1 ×10e−6 cm/sec and the “PAMPA: P_app” value (pH 7.4) is given as 26.4 ×10e−6 cm/sec.

For `O=c1nc2c(ccn2C2CC2)cn1-c1nc(-c2ccc(F)cc2)oc1-c1ccccc1` [Compound 213, 7-cyclopropyl-3-(2-(4-fluorophenyl)-5-phenyloxazol-4-yl)-3,7-dihydro-2H-pyrrolo[2,3-d]pyrimidin-2-one], the Papp at 4 hr, 200 uM (pH 5.0, 200 uM test compound) is 36 ×10⁻⁶ cm/s and the Papp at 4 hr, 200 uM (pH 7.4, 200 uM test compound) was found to be 48 ×10⁻⁶ cm/s.

Take `c1ccc(Cn2nc(-c3ccccc3)c3cnc(-c4cnn[nH]4)nc32)cc1` [Compound 284, 1-benzyl-3-phenyl-6-(1H-1,2,3-triazol-5-yl)-1H-pyrazolo[3,4-d]pyrimidine]: the Papp at 4 hr, 200 uM (pH 5.0, 200 uM test compound) is over 50 ×10⁻⁶ cm/s. Moreover, for the setting “pH 7.4”, the “PAMPA: P_app” value is on record as over 50 ×10e−6 cm/sec.

(Values after patent publication US20240197682A1, “METHOD FOR TREATING NEUROLOGICAL DISEASES USING SUPRAMOLECULE POLYMER THERAPEUTICS” (The Regents of the University of California, priority 2022, published 2024).)
